Experimental data as given in paper PMC6445242, “Novel tetrazole and cyanamide derivatives as inhibitors of cyclooxygenase-2 enzyme: design, synthesis, anti-inflammatory evaluation, ulcerogenic liability and docking study” (Journal of Enzyme Inhibition and Medicinal Chemistry, 2017).
Entries after “also recorded” stand apart in the source; their conditions may differ.

Legend:
ovine COX-1 = biological target: T1, ovine COX-1 (Ovis aries, UniProt P05979); test: In vitro COX-1 inhibition assay (EIA kit, Cayman)
T1 sequence (P05979 25-600): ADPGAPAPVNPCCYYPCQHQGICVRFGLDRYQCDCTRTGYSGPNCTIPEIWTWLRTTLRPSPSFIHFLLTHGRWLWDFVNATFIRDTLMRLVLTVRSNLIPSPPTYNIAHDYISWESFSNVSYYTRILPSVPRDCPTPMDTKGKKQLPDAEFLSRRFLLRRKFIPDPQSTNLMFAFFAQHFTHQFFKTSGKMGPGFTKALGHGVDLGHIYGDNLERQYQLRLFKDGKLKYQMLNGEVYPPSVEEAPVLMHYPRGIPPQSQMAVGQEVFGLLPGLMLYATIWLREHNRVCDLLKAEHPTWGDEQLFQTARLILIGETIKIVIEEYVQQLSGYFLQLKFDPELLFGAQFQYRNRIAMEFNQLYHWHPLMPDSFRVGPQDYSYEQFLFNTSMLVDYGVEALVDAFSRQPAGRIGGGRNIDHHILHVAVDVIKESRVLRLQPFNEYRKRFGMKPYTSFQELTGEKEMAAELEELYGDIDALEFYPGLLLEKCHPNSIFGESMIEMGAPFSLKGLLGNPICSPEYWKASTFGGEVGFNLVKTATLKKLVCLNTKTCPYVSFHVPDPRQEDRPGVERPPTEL
Procedure: (§1) The peroxidase activity of cyclooxygenase enzyme isoforms was measured using the COX activity assay kit. The ability of the test compounds to inhibit both ovine COX-1 and COX-2 enzymes was explored in vitro using a colorimetric enzyme immunoassay (EIA) kit. The appearance of oxidised N,N,N′,N′-tetramethyl-p-phenylenediamine (TMPD) was monitored at 590 nm. The kit includes isozyme-specific inhibitors for distinguishing COX-2 activity from that of COX-1.

[1] = tested on: gastric mucosa (ulcer number, ulcer index); test: Ulcerogenic liability; assay type: in vivo, rat; conditions: 50 mg/kg oral, three successive days, rats; for Ulcer index: sum of % incidence, average severity and average number of ulcers
Procedure: Female wister rats (150–200 g) were used in this study. The animals were kept at controlled conditions (temperature 23 ± 2 °C, humidity 60 ± 10%) and a 12/12-h light/dark cycle with access to food and water. All procedures relating to animal care and treatments were performed according to protocols approved by the Research Ethical Committee of Faculty of Pharmacy Beni-Suef University (2014-Beni-Suef, Egypt).
[…]. Forty-eight rats were used in this study, divided into 12 groups and fasted for 18 h before drug administration. The control group received the vehicle (2.5% Tween 80). Other groups received test compounds, celecoxib or indomethacin at a dose of 50 mg/kg, then animals were fed after 2 h. Rats were given the specified dose orally for three successive days. Rats were sacrificed after 2 h of the last dose, then the stomach of each rat was removed and opened along the greater curvature for determination of the ulcer number and ulcer index according to the reported method.

abdominal writhings = test: Acetic acid-induced writhing test (peripheral analgesic activity); conditions: 10 mg/kg oral, mice, 0.6% acetic acid i.p.
Description: Pain was induced by intraperitoneal injection of acetic acid, then counting the number of abdominal writhings.

ovine COX-2 = biological target: T2, ovine COX-2 (Ovis aries, UniProt P79208); test: In vitro COX-2 inhibition assay (EIA kit, Cayman); conditions: for IC50: IC50 COX-2, ovine COX-2, mean of two determinations; for SI, COX-2 selectivity index (COX-1 IC50/COX-2 IC50): ovine enzymes
T2 sequence (P79208 17-603): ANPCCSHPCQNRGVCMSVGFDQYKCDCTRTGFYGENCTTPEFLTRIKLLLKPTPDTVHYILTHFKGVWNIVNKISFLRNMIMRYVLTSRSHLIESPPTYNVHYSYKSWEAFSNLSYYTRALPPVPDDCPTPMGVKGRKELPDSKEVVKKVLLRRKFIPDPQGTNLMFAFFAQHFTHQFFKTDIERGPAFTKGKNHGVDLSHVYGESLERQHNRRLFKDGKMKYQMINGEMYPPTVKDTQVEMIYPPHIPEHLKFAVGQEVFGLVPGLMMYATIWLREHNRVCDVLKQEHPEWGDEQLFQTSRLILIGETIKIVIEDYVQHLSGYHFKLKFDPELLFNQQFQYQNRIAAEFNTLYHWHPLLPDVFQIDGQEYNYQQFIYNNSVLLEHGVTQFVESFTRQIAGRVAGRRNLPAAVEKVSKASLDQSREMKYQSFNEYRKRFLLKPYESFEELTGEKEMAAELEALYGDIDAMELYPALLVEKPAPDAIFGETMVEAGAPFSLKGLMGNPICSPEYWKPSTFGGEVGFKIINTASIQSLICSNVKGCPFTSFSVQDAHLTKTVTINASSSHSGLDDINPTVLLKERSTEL
Procedure: as §1

[2] = tested on: carrageenan-induced paw oedema; test: Carrageenan-induced rat paw oedema; assay type: in vivo; conditions: 50 mg/kg oral; for %Inhibition of paw oedema, 1h / Paw thickness change mean ± SEM, 1h: 1 h after carrageenan; for Paw thickness change mean ± SEM, 1h / Paw thickness change mean ± SEM, 3h / Paw thickness change mean ± SEM, 5h: n = 4; for %Inhibition of paw oedema, 3h / Paw thickness change mean ± SEM, 3h: 3 h after carrageenan; for %Inhibition of paw oedema, 5h / Paw thickness change mean ± SEM, 5h: 5 h after carrageenan
Procedure: Female wister rats (150-200 g) were used in this study. The animals were kept at controlled conditions (temperature 23 ± 2 °C, humidity 60 ± 10%) and a 12/12-h light/dark cycle with access to food and water. All procedures relating to animal care and treatments were performed according to protocols approved by the Research Ethical Committee of Faculty of Pharmacy Beni-Suef University (2014-Beni-Suef, Egypt). The anti-inflammatory activity of the synthesised compounds was determined in vivo by […]-induced paw oedema method in rats[49]. Rats were divided into 21 groups of four animals each, and then, they were fasted overnight with free access to water before the experiment. Before any drug administration, thickness of the left hind paw of each rat was measured in millimetres. Group 1 served as a control and administered the vehicle (2.5% Tween 80).

rat's gastric tissue = test: Histopathological investigation of stomach; assay type: in vivo; conditions: haematoxylin and eosin, after ulcerogenic liability dosing
Procedure: Whole rats stomach were collected, selected stomach samples from each rat were fixed in 10% neutral buffered formalin for 48 h and routinely processed for paraffin embedding. 5 μm Thickness sections were obtained then stained with haematoxylin and eosin for histopathological evaluation.

COX-2 = conditions: cited from earlier work
[3] = cited from earlier work
[4] = tested on: latency time of pain response; test: Hot plate method (central analgesic activity); assay type: in vivo; conditions: 10 mg/kg oral, mice, hot plate 55 °C, after 60 min
Procedure: This method was used to evaluate the central analgesic activity by determination of the delay in the latency time of pain response. […] After 60 min, the animals were placed on a hot plate maintained at 55 ± 0.5 °C. The reaction time was recorded as the time taken by the animals to […] or lick the fore or hind paw or jump off the plate.

Structure (SMILES)	IC50 (ovine COX-1)	Average number of ulcers [1]	Ulcer index [1]	Peripheral analgesic activity (writhing) (abdominal writhings)	IC50 (ovine COX-2)	SI, COX-2 selectivity index (COX-1 IC50/COX-2 IC50) (ovine COX-2)	%Inhibition of paw oedema, 1h [2]	Paw thickness change mean ± SEM, 1h [2]	%Inhibition of paw oedema, 3h [2]	Paw thickness change mean ± SEM, 3h [2]	%Inhibition of paw oedema, 5h [2]	Paw thickness change mean ± SEM, 5h [2]	melting point	Histopathological findings in stomach (rat's gastric tissue)	COX-2/COX-1 selectivity (SI) (COX-2)	Gastric ulceration side effect [3]	Central analgesic activity (delay in latency time) [4]
COc1ccc(C2CC(c3ccc(-n4cnnn4)cc3)=NN2c2ccc(S(N)(=O)=O)cc2)cc1OC (stereo not shown) [Compound 9a, 4-{3-[4-(1H-Tetrazol-1-yl)phenyl]-5-(3,4-dimethoxyphenyl)-4,5-dihydro-1H-pyrazol-1-yl)benzenesulphonamide]	7.11 µM	1.25	2.00	most active	330 nM	21.54	75%	0.40 ± 0.00 mm	39%	1.03 ± 0.09 mm	19%	1.08 ± 0.20 mm	226 to 228 °C	sever congestion in blood capillaries and lymphocytic infiltration; also recorded: caused destructive effect on the mucosa and ulceration	–	–	–
O=C1OCC(c2ccc(-c3nnn[nH]3)cc2)=C1c1ccccc1 [VI]	–	–	–	–	–	–	–	–	–	–	–	–	–	–	2.11	lacked the side effect of gastric ulceration	–
COc1ccc(-c2cc(-c3ccc(-n4cnnn4)cc3)[nH]c(=O)c2C#N)cc1OC [Compound 5e, 6-[4-(1H-Tetrazol-1-yl)phenyl]-4-(3,4-dimethoxyphenyl)-2-oxo-1,2-dihydropyridine-3-carbonitrile]	7.14 µM	1.00	1.25	most active	–	37.57	71%	0.45 ± 0.16 mm	42%	0.98 ± 0.03 mm	49%	0.68 ± 0.08 mm	272 to 274 °C	affect only muscular layer of the stomach by causing corrugation and hyalinosis in some muscle bundles and reach to coagulative necrosis	–	–	potent analgesic activities
CN(C)c1ccc(-c2cc(-c3ccc(-n4cnnn4)cc3)[nH]c(=O)c2C#N)cc1 [Compound 5d, 6-[4-(1H-Tetrazol-1-yl)phenyl]-4-[4-(dimethylamino)phenyl]-2-oxo-1,2-dihydropyridine-3-carbonitrile]	11.3 µM	1.25	1.50	most active	450 nM	25.13	71%	0.45 ± 0.10 mm	63%	0.61 ± 0.12 mm	43%	0.76 ± 0.15 mm	263 to 265 °C	Mucous degeneration in gastric glandular epithelium, thickening and hyalinosis of basement membrane, as well as eosinophilic infiltrations in submucosa	–	–	–
Cc1ccc(-c2cc(C(F)(F)F)nn2-c2ccc(-c3nnn[nH]3)cc2)cc1 [V]	–	–	–	–	–	–	–	–	–	–	–	–	–	–	2.16	lacked the side effect of gastric ulceration	–
